{"source": "patent US20130171158A1", "about": "“TREATMENT OF ABNORMALITIES OF GLUCOSE METABOLISM WITH AN ANTAGONIST OF INHIBITOR OF DIFFERENTIATION 1” (GARVAN INSTITUTE OF MEDICAL RESEARCH, priority 2010, published 2013)", "test_system": "MIN6 cells", "experiment": "Insulin secretion assay in MIN6 cells treated with palmitate with or without Cannabidiol", "assay_type": "cell-based, mouse", "settings": "10 μM Cannabidiol, 0.4 mM palmitate coupled to 0.92% BSA for 48 h; 2.8 or 25 mM glucose for 1 h", "description": "FIG. 11 is a graphical represenatation showing that an inhibitor of Id1 expression (Cannabidiol) protects MIN6 beta cells against lipid (palmitate)-induced insulin secretory dysfunction. Cells were treated with either 0.92% BSA or 0.92% BSA coupled to 0.4 mM palmitate for 48 h, in combination with the absence or presence of 10 μM Cannabidiol. Insulin secretion assay was performed. After 30-min preincubation in KRB medium containing 2.8 mM glucose, the cells were incubated in KRB medium containing either 2.8 mM glucose (clear bars) or 25 mM glucose (dark bars) for 1 h. Medium was taken to determine levels of insulin secretion. Insulin secretion expressed as fold change compared with Control cells incubated with 25 mM glucose. Results are means±SE. The MIN6 cell line was also used to examine the effects of inhibition of Id1 on lipid-induced insulin secretory dysfunction. MIN6 cells were grown in DMEM. Cells were seeded at 2×10^5 cells per well in 24-well plates. Cells were treated with either 0.92% BSA or 0.92% BSA coupled to 0.4 mM palmitate for 48 h, in combination with the absence or presence of 10 μM Cannabidiol. After chronic incubation, cells were washed in KRB buffer containing 2.8 mM glucose, and then they were preincubated for a further 30 min in 0.5 ml of the same medium at 37° C. […]"}
{"molecule": "C=C(C)[C@@H]1CCC(C)=C[C@H]1c1c(O)cc(CCCCC)cc1O", "note": "[Cannabidiol]", "values": [{"measurement": "protection against palmitate-induced insulin secretory dysfunction", "result": "protected the cells against palmitate-induced insulin secretory dysfunction"}]}
